Assay [1] can be described thus: Concentration required to inhibit human recombinant Poly (ADP-ribose) polymerase 1 was determined using cell protection assay.
Assay in assay [2]: as above
The source holds these as a separate data set.

Assay [3] in a line: Concentration required to inhibit human recombinant PARP-1 was determined using cell protection assay.

As a reminder, the EC50 is the concentration needed to bring the measured effect to its halfway point.

As to `O=C(CCn1c2c(c(=O)[nH]c1=O)CSCC2)NCC(=O)c1ccc2ccccc2c1` [3-(2,4-Dioxo-3,4,7,8-tetrahydro-2H,5H-thiopyrano[4,3-d]pyrimidin-1-yl)-N-(2-naphthalen-2-yl-2-oxo-ethyl)-propionamide], the EC50 in assay [1] amounted to 80 nM. With `O=C(CCn1c2c(c(=O)[nH]c1=O)CSCC2)NCC(=O)N1CCN(c2ccccc2)CC1` [3-(2,4-Dioxo-3,4,7,8-tetrahydro-2H,5H-thiopyrano[4,3-d]pyrimidin-1-yl)-N-[2-oxo-2-(4-phenyl-piperazin-1-yl)-ethyl]-propionamide], the EC50 in assay [2] is 100 nM. Turning to `O=C(CCn1c2c(c(=O)[nH]c1=O)CSCC2)NCC(=O)N1CCN(c2ccccn2)CC1` [3-(2,4-Dioxo-3,4,7,8-tetrahydro-2H,5H-thiopyrano[4,3-d]pyrimidin-1-yl)-N-[2-oxo-2-(4-pyridin-2-yl-piperazin-1-yl)-ethyl]-propionamide], the EC50 in assay [1] was determined as 100 nM. On to `O=C(CCn1c2c(c(=O)[nH]c1=O)CSCC2)NCC(=O)N1CCN(c2ncccc2C(F)(F)F)CC1` [3-(2,4-Dioxo-3,4,7,8-tetrahydro-2H,5H-thiopyrano[4,3-d]pyrimidin-1-yl)-N-{2-oxo-2-[4-(3-trifluoromethyl-pyridin-2-yl)-piperazin-1-yl]-ethyl}-propionamide], for which the EC50 in assay [3] came out at 100 nM.

With `O=C(CCn1c2c(c(=O)[nH]c1=O)CSCC2)NCC(=O)N1CCN(c2cc(C(F)(F)F)ccn2)CC1` [3-(2,4-Dioxo-3,4,7,8-tetrahydro-2H,5H-thiopyrano[4,3-d]pyrimidin-1-yl)-N-{2-oxo-2-[4-(4-trifluoromethyl-pyridin-2-yl)-piperazin-1-yl]-ethyl}-propionamide], the EC50 in assay [1] was determined as 100 nM. For `COc1ccc(C(=O)CNC(=O)CCn2c3c(c(=O)[nH]c2=O)CSCC3)cc1` [3-(2,4-dioxo-2,3,4,5,7,8-hexahydro-1H-thiopyrano[4,3-d]pyrimidin-1-yl)-N-(2-(4-methoxyphenyl)-2-oxoethyl)propanamide], the EC50 in assay [3] is 80 nM. For the molecule `O=C(CCn1c2c(c(=O)[nH]c1=O)CSCC2)NCC(=O)c1ccc(-c2ccccc2)cc1` [N-(2-Biphenyl-4-yl-2-oxo-ethyl)-3-(2,4-dioxo-3,4,7,8-tetrahydro-2H,5H-thiopyrano[4,3-d]pyrimidin-1-yl)-propionamide], in assay [3], the EC50 came out at 500 nM. On to `Nc1cccc(-c2ccc(C(=O)CNC(=O)CCn3c4c(c(=O)[nH]c3=O)CSCC4)cc2)c1` [N-[2-(3'-Amino-biphenyl-4-yl)-2-oxo-ethyl]-3-(2,4-dioxo-3,4,7,8-tetrahydro-2H,5H-thiopyrano[4,3-d]pyrimidin-1-yl)-propionamide], for which the EC50 in assay [1] was 70 nM. For `O=C(CCn1c2c(c(=O)[nH]c1=O)CSCC2)NCC(=O)c1cccc(Br)c1` [N-[2-(3-Bromo-phenyl)-2-oxo-ethyl]-3-(2,4-dioxo-3,4,7,8-tetrahydro-2H,5H-thiopyrano[4,3-d]pyrimidin-1-yl)-propionamide], in assay [3], the EC50 is 3500 nM. As for `O=C(CCn1c2c(c(=O)[nH]c1=O)CSCC2)NCC(=O)c1ccc(Cl)cc1` [N-[2-(4-Chloro-phenyl)-2-oxo-ethyl]-3-(2,4-dioxo-3,4,7,8-tetrahydro-2H,5H-thiopyrano[4,3-d]pyrimidin-1-yl)-propionamide], the EC50 in assay [1] amounted to 500 nM. With `O=C(CCn1c2c(c(=O)[nH]c1=O)CSCC2)NCC(=O)c1ccc(OC(F)F)cc1` [N-[2-(4-Difluoromethoxy-phenyl)-2-oxo-ethyl]-3-(2,4-dioxo-3,4,7,8-tetrahydro-2H,5H-thiopyrano[4,3-d]pyrimidin-1-yl)-propionamide], the EC50 in assay [3] was found to be 200 nM. For `Nc1cccnc1N1CCN(C(=O)CNC(=O)CCn2c3c(c(=O)[nH]c2=O)CSCC3)CC1` [N-{2-[4-(3-Amino-pyridin-2-yl)-piperazin-1-yl]-2-oxo-ethyl}-3-(2,4-dioxo-3,4,7,8-tetrahydro-2H,5H-thiopyrano[4,3-d]pyrimidin-1-yl)-propionamide], the EC50 in assay [1] was 700 nM.
